Molecular target: T1, chymase (Homo sapiens, UniProt P23946)
T1 construct: gene CMA1; recombinant human chymase
T1 sequence (P23946 22-247): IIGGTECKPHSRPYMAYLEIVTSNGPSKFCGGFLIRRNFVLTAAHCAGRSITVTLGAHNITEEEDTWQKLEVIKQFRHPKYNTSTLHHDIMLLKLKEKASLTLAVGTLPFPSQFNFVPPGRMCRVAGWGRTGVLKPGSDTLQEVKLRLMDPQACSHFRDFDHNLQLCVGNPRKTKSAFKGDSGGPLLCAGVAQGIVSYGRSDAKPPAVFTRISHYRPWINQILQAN
Experiment: Ang I to Ang II conversion by recombinant human chymase, LC-MS/MS dose response
Type: biochemical

CC(C)C[C@H](NC(=O)[C@@H](NC(=O)N[C@@H](Cc1ccccc1)C(=O)O)[C@@H]1CCN=C(N)N1)C(=O)N[C@H](C=O)Cc1ccccc1 [chymostatin]
IC50: 60 nM

From PMC12857369 (Kidney International Reports, 2025)
